From patent US10174156B2, “Hyperbranched polyester with a hydrophobic nucleus for solubilizing poorly soluble active substances” (BASF SE, priority 2009, dated 2019) come the findings set out here.

The series in a line: physchem. To be noted: pH 7, aqueous buffer, thermodynamic from solid.

Protocol: 2 g of polymer were weighed into a 50 ml beaker. Subsequently, 0.2 g of active ingredient in each case was weighed into the mixture in order to obtain an oversaturated solution. […] The mixture was then stirred at room temperature with the aid of a magnetic stirrer for 72 h. After a rest time of 1 h, excess (i.e. unsolubilized) active ingredient was removed by filtration. The clear or opaque solution thus obtained was subsequently analyzed for its active ingredient content by means of UV spectroscopy or HPLC.

On to `Clc1ccccc1C(c1ccccc1)(c1ccccc1)n1ccnc1` [Clotrimazole], for which the solubility at 72 h is < 100 µg/mL.
